Key:
[1] = system: acetylated histones in HT29 cells; experiment: Histone acetylation, western blot of nuclear lysates; format: cell-based, human; settings: HT29, 5 μM, 6 h
Description: In order to identify acetylated histones, we analyzed the nuclear cell lysates by western blot using a 10% polyacrylammide gel electrophoresis. […] Differences in the density of the bands are thought to reflect differences in protein acetylation levels. Histone acetylation signals were quantified by densitometry and normalized on histone H1 (Figure 5).
HT29 cells were seeded in dish and after 24 h they were treated for 6 h with compound 5 at final concentration of 5 µM. Cells were harvested, washed with 10 mM sodium butyrate in PBS, and nuclei were isolated in according to Amellem and Micheletti. The nuclear pellet was suspended in 0.1 mL ice-cold H2O using a Vortex mixer, and concentrated H2SO4 was added to the suspension to give a final concentration of 0.4 N. After incubation at 4 °C for 1 h, the suspension was centrifuged for 5 min at 14,000× g, and the supernatant was taken and mixed with 1 mL of acetone. After overnight incubation, the coagulate material was collected by microcentrifugation and air-dried. […] Proteins were quantified using a protein assay kit (Bio-Rad, Hercules, CA, USA). Histones were detected resolving samples on a 10% gel in MES buffer at 200 V for 40 min. […] After five washes with PBS-TWEEN 20 0.1%, antibody binding was detected by Amersham ECL Plus Western Blotting Detection System (GE Healthcare, Milan, Italy).

[2] = system: CDKN1B, CDKN1A and Bax transcription in HT29 cells; experiment: Quantitative real-time PCR of CDKN1B, CDKN1A, Bax; format: cell-based, human; settings: HT29, 5 μM, 6 h, normalized to G3PDH, vs. control
Description: To verify whether the epigenetic modifications were related to changes in gene expression, we proceeded with the qtRT-PCR analysis and western blot of related protein products. Transcription levels of CDKN1B, CDKN1A, and Bax were analysed by RT-PCR performed on cDNA of HT29 control and treated with 5 μM of 5 for 6 h.
24 h after seeding, HT29 cells have been treated with 5 µM 5 for 6 h. Total RNA has been isolated by RNeasy Mini kit (Qiagen, Hilden, Germany) according to the manufacturer’s protocol. 1 μg of RNA has been reverse-transcribed with RevertAid First Strand cDNA Synthesis Kit (Fermentas, Ontario, Canada) by using oligo(dT) primers. The cDNA has been analyzed by quantitative Real-Time PCR (qRT-PCR), by employing the LightCycler FastStart DNA Master SYBR Green I Kit and the LightCycler 2.0 instrument (Roche Diagnostics, Manheim, Germany). Gene expression has been quantified by ΔΔCT method, by using G3PDH as the housekeeping gene. The following primers were used: 5′-[…]-3′ (forward) and 5′-[…]-3′ (reverse) for G3PDH detection, 5′-[…]-3′ (forward) and 5′-[…]-3′ (reverse) for p27 detection 5′-[…]-3′(forward) and 5′-[…]-3′ (reverse) for p21 WAF1 detection, 5′-GATGCGTCCACCAAGAAGC-3′ (forward) and 5′-CCGCCACAAAGATGGTCAC -3′ (reverse) for Bax detection.

[3] = system: PC-3 (human prostate adenocarcinoma) cells; experiment: MTT viability assay, PC3; format: cell-based
Excerpt: To investigate whether the compounds have an antitumor activity, we performed in vitro viability assays against a panel of cancer cell lines: HT29 (human colorectal adenocarcinoma), HeLa (human cervical carcinoma), IGROV-1 (human ovarian carcinoma), MCF7 (human breast cancer), PC-3 (human prostate adenocarcinoma), and Jurkat J6 (human […]). The I407 (human embryonic intestinal) and 3T3 (mouse embryonic fibroblast) cells were used as controls. The growth inhibitory concentration was determined by incubating the cells with increasing concentrations (0.01–500 μM) of the compounds for 24 h. Data obtained from cell growth assays were elaborated to assess the concentration of cell viability (IC50) and selectivity indices (SI), and the results are shown in Table 2 and Table 3, respectively.
HT29 human colorectal adenocarcinoma cells, HeLa human cervix adenocarcinoma cells, MCF7 human breast adenocarcinoma cells, PC-3 human prostate adenocarcinoma cells, J6 Jurkat Clone E6-1 acute T cell leukemia, the healthy I407 human intestine cells, and mouse embryonic fibroblast 3T3 fibroblasts as controls cell lines were purchased from American Type Culture Collection (ATCC, Manassas, VA). The human ovarian cancer cell line IGROV1 has been kindly provided by Prof. Colnaghi (Istituto Nazionale Tumori (IRCCS) (Milano, Italy). Cells were cultured in RPMI 1640 medium (Labtek Eurobio, Milan, Italy), supplemented with 10% FCS (Euroclone, Milano, Italy) and 2 mM L-glutamine (Sigma-Aldrich, Milano, Italy), at 37 °C, and a 5% CO2 atmosphere. The compounds were dissolved in DMSO in a 30–40 mM stock solution. In cell treatments, the final DMSO concentration never exceeded 0.1%.
Cells were seeded at 1.5 × 10^4 cells/well in a 96-well culture plastic plate (Sarsted, Milan, Italy), and after 24 h of growth were exposed to increasing concentrations of each distinct compound (from 0.010 μM to 500 μM) solubilized in RPMI 1640 medium. MTT assay was performed according to the literature. In brief, after 24 h of treatment, the culture medium was replaced with 0.1 mL of 3-(4,5-dimethylthiazolyl-2)-2,5-diphenyltetrazolium bromide (MTT, Sigma-Aldrich, Milano, Italy) dissolved in PBS at the concentration of 0.2 mg/mL, and samples were incubated for 2 h at 37 °C. The absorbance at 570 nm was measured using a multiwell plate reader (Tecan, Männemorf, Switzerland), and data were analyzed by Prism GraphPad software, and expressed as IC50 μM.

Nc1ccc(CN(Cc2ccc(O)cc2)C(=O)Cc2c[nH]c3ccccc23)cc1 [Compound 5]
Histone H2/H3 acetylation [1]: did not modify the state of acetylation of H2/H3 | Histone H4 acetylation [1]: induced H4 hyperacetylation | Bax gene expression (fold change) [2]: 2.58 ± 0.11 | CDKN1A gene expression (fold change) [2]: 4.16 ± 0.53 | CDKN1B gene expression [2]: did not modify the gene expression | Selectivity Index IC503T3/ IC50PC3 ([3]; 3T3 normal cells as reference): 82.051 | IC50 ([3]; Homo sapiens, MTT, 24 h): 0.39 ± 0.07 µM

Reference: publication PMC9822155, “Synthesis and Antiproliferative Activity against Cancer Cells of Indole-Aryl-Amide Derivatives” (Molecules, 2022)
